Data from the supplement of paper PMC10307832.

Assays:
Experiment in all cases: relative viability (nuclei count vs DMSO), 5 days (fraction); higher = more cells survive
[1] = compound: O=C(C[C@H]1NCCC[C@@H]1O)Cn1cnc2cc(Br)c(Cl)cc2c1=O (racemic) [Halofuginone] + CC(=O)c1c(C)c2cnc(Nc3ccc(N4CCNCC4)cn3)nc2n(C2CCCC2)c1=O [Palbociclib] (partner 0.5 µM)
Procedure, shortened: (§1)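 For relative viability, nuclei counts in treated wells were divided by those in vehicle wells. Lung cancer cell lines had been pin-tool dosed in 1536-well plates the day after seeding and cultured for 5 days, then fixed and stained in one step (final 0.05% Triton X-100, 1% formaldehyde, 1 ug/ml Hoechst) and imaged at 4×. Doses were one drug alone or a fixed anchor-drug dose plus five library-drug doses (not always all listed) in √10 steps, and values are duplicate-plate medians.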

Decitabine + Crizotinib = compound: Nc1ncn([C@H]2C[C@H](O)[C@@H](CO)O2)c(=O)n1 [Decitabine] + C[C@@H](Oc1cc(-c2cnn(C3CCNCC3)c2)cnc1N)c1c(Cl)ccc(F)c1Cl [Crizotinib] (partner 1 µM)
Procedure, shortened: as §1

Decitabine + Pictilisib = compound: Nc1ncn([C@H]2C[C@H](O)[C@@H](CO)O2)c(=O)n1 [Decitabine] + CS(=O)(=O)N1CCN(Cc2cc3nc(-c4cccc5[nH]ncc45)nc(N4CCOCC4)c3s2)CC1 [Pictilisib] (partner 1 µM)
Procedure, shortened: as §1

Cediranib + Palbociclib = compound: COc1cc2c(Oc3ccc4[nH]c(C)cc4c3F)ncnc2cc1OCCCN1CCCC1 [Cediranib] + CC(=O)c1c(C)c2cnc(Nc3ccc(N4CCNCC4)cn3)nc2n(C2CCCC2)c1=O [Palbociclib] (partner 0.5 µM)
Procedure, shortened: as §1

Cell Line	relative viability ([1]; first compound 0.001 µM)	relative viability ([1]; first compound 0.003162 µM)	relative viability ([1]; first compound 0.01 µM)	relative viability ([1]; first compound 0.03162 µM)	relative viability ([1]; first compound 0.1 µM)	relative viability (Decitabine + Crizotinib; first compound 0.04 µM)	relative viability (Decitabine + Crizotinib; first compound 0.1265 µM)	relative viability (Decitabine + Crizotinib; first compound 0.4 µM)	relative viability (Decitabine + Crizotinib; first compound 1.265 µM)	relative viability (Decitabine + Crizotinib; first compound 4 µM)	relative viability (Decitabine + Pictilisib; first compound 0.04 µM)	relative viability (Decitabine + Pictilisib; first compound 0.1265 µM)	relative viability (Decitabine + Pictilisib; first compound 0.4 µM)	relative viability (Decitabine + Pictilisib; first compound 1.265 µM)	relative viability (Decitabine + Pictilisib; first compound 4 µM)	relative viability (Cediranib + Palbociclib; first compound 0.04 µM)	relative viability (Cediranib + Palbociclib; first compound 0.1265 µM)	relative viability (Cediranib + Palbociclib; first compound 0.4 µM)	relative viability (Cediranib + Palbociclib; first compound 1.265 µM)	relative viability (Cediranib + Palbociclib; first compound 4 µM)
201T	0.369	0.185	0.381	0.367	0.351	1.02	1	1.15	0.965	0.914	0.655	0.817	0.93	0.695	0.531	0.368	0.429	0.352	0.372	0.341
A549						0.498	0.658	0.348	0.13	0.102	0.444	0.49	0.37	0.256	0.166					
A-427	0.526	0.538	0.534	0.49	0.479	0.489	0.403	0.316	0.205	0.165	0.42	0.663	0.244	0.359	0.219	0.524		0.481	0.458	0.502
ABC-1	0.551	0.606	0.739	0.475	0.61	0.771	0.907	0.627	0.728	0.542	0.812	0.728	0.812	0.443	0.505	0.766	1.04	0.538	0.853	0.426
BEN	0.487	0.471	0.441	0.473	0.385	0.914	0.786	0.623	0.469	0.453	0.545	0.543	0.396	0.349	0.324	0.437	0.412	0.489	0.451	0.47
CAL-12T	0.332	0.433	0.406	0.392	0.194	0.612	0.664	0.174	0.416	0.222	0.299	0.499	0.332	0.339	0.301	0.535	0.408	0.411	0.466	0.666
COR-L23	0.328	0.303	0.344	0.292	0.139	0.332	0.33	0.332	0.22	0.184	0.527	0.619	0.239	0.178	0.172	0.282	0.349	0.279	0.353	0.263
COR-L 105	0.441	0.403	0.396	0.392	0.413	0.596	0.633	0.573	0.356	0.319	0.327	0.442	0.405	0.341	0.292	0.413	0.405	0.426	0.394	0.414
Calu-6						0.495	0.478	0.283	0.227	0.224	0.76	0.685	0.468	0.334	0.243					
ChaGo-K-1	0.945	0.947	0.963	0.95	0.947	0.962	0.857	0.631	0.6	0.605	0.552	0.705	0.446	0.509	0.492	0.979	0.922	0.961	0.996	0.986
EBC-1						0.146	0.176	0.193	0.144	0.148	0.277	0.295	0.252	0.214	0.169					
EKVX	0.377	0.352	0.415	0.444	0.306	0.828	0.73	0.503	0.396	0.364	0.37	0.387	0.391	0.252	0.241	0.394	0.386	0.326		0.316
EMC-BAC-2	0.545	0.531	0.506	0.536	0.37	0.64	0.656	0.454	0.483	0.402	0.529	0.557	0.468	0.411	0.37	0.519	0.562	0.529	0.51	0.499
EPLC-272H	0.306	0.33	0.339	0.361	0.314	0.587	0.587		0.414	0.402	0.277	0.303		0.271	0.321	0.297		0.312	0.327	0.318
H3255	0.322	0.323	0.346	0.309	0.351	0.417	0.82	0.419	0.537	0.484	0.189	0.462	0.342	0.331	0.358	0.322	0.322	0.316	0.308	0.334
HARA	0.382	0.266	0.234	0.264	0.216	0.774	0.745	0.63	0.379	0.352	0.367	0.564	0.285	0.236	0.15	0.249	0.32	0.298	0.301	0.211
HCC-15	0.802	0.823	0.731	0.713	0.65	0.705	0.643	0.333	0.412	0.355	0.742	0.767	0.288	0.484	0.411	0.69		0.681	0.751	0.678
HCC-44	0.976	0.964	0.962	0.932	0.966	0.641	0.72	0.28	0.449	0.374	0.537	0.71	0.353	0.412	0.372	0.983	0.917	0.974	0.947	1.01
